Each structure is given as a SMILES string. Where two headings read alike, the source gives them in different places.

Data on 7 molecules can be found in US12570655B2, “Cysteine covalent modifiers of AKT1 and uses thereof” (Terremoto Biosciences, Inc., priority 2023, dated 2026).

Common to all, as to format: cell-based
One experiment has as its target T1, AKT1 WT (Homo sapiens, UniProt P31749).
T1 construct: expressed in transfected cells; host or cells: HEK293
The experiment in a line: Live cell AKT1 WT target engagement by NanoBRET competitive probe displacement. The note with it: HEK293 cells transfected with kinase-NanoLuciferase fusion, 2 h at 37° C. The method, boiled down: (§1)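 HEK293 cells transiently expressing kinase–NanoLuc fusions overnight; treated with serial compound dilutions plus fluorescent ATP-competitive tracer at ~EC50, 2 h at 37 °C. BRET ratio E600/E460 read after substrate and extracellular luciferase inhibitor; IC50 from log(inhibitor) vs response Hill fit.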

Experiment [1] deals with LAPC4 prostate cancer cells. The experiment in a line: Antiproliferative effects in LAPC4 cells (CellTiter Glo). The note with it: LAPC4 cells (AKT1 E17K allele), read-out: LAPC4 proliferation IC50. The method, boiled down:
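LAPC4 prostate cancer cells carrying AKT1 E17K, grown in IMDM with 12% FBS, were seeded at 1,000 cells/well and exposed to compound dilutions for 72 h. Viability was read as intracellular ATP by CellTiter Glo luminescence, and IC50 was fitted with a log(inhibitor) vs. response Hill equation.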

The next experiment has as its target T2, AKT1 E17K (Homo sapiens, UniProt P31749, E17K).
T2 construct: expressed in transfected cells; host or cells: HEK293
The experiment in a line: Live cell AKT1 E17K target engagement by NanoBRET competitive probe displacement. The note with it: HEK293 cells transfected with kinase-NanoLuciferase fusion, 2 h at 37° C. An outline of the steps: as §1
For orientation: In BRET a luciferase serves as donor, and the signal depends on an acceptor being close.

The next experiment deals with T3, AKT2 (Homo sapiens, UniProt P31751).
T3 construct: expressed in transfected cells; host or cells: HEK293
T3 sequence (P31751 whole entry): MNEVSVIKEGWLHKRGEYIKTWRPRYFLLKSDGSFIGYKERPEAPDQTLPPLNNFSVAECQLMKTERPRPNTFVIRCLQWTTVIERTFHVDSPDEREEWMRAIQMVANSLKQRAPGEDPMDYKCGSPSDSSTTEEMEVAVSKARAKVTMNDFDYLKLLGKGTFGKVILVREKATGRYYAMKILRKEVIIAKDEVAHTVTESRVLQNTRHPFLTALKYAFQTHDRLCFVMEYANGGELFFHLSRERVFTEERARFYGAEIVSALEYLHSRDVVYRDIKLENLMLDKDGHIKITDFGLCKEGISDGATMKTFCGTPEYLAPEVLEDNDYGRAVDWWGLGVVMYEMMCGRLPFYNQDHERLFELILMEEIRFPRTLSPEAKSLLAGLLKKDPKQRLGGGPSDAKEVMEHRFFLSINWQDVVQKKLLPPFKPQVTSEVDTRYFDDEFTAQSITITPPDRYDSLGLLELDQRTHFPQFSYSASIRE
The experiment in a line: Live cell AKT2 target engagement by NanoBRET competitive probe displacement. The note with it: HEK293 cells transfected with kinase-NanoLuciferase fusion, 2 h at 37° C. An outline of the steps:
as §1

T1 sequence (P31749 whole entry): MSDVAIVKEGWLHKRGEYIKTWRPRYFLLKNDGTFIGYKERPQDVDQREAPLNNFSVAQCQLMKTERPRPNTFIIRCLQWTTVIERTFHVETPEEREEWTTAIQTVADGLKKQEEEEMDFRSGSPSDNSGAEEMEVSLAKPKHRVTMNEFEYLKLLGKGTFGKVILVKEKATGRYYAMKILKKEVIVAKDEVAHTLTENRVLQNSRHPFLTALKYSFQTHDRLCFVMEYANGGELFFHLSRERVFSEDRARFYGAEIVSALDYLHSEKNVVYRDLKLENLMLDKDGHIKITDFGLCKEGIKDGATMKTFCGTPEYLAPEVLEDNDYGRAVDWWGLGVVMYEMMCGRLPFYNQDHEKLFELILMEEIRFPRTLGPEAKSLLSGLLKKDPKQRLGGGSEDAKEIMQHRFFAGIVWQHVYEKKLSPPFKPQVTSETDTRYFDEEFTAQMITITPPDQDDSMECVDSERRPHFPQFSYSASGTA
T2 sequence (P31749 whole entry E17K): as the sequence (P31749 whole entry) above, with E17K counted along it

For the molecule `C=CC(=O)N1C[C@H]2C[C@@H]1CC2N[C@H]1CCc2cc(-n3c(-c4cccnc4N)nc4ccc(-n5cccn5)nc43)ccc21` (single isomer, unassigned) [Example 138, 1-[(1R,4R,5*)-5-{[(1S)-5-[2-(2-aminopyridin-3-yl)-5-(pyrazol-1-yl)imidazo[4,5-b]pyridin-3-yl]-2,3-dihydro-1H-inden-1-yl]amino}-2-azabicyclo[2.2.1]heptan-2-yl]prop-2-en-1-one], the IC50 was determined as 289 nM at AKT1 WT, 963 nM in experiment [1] (72 h), 744 nM on AKT1 E17K and 1810 nM on AKT2.
The matching figures for `C=CC(=O)N1CCC(N[C@@H]2c3ccc(-n4c(-c5cccnc5N)nc5ccc(-n6ccc(F)n6)nc54)cc3CC2F)CC1` (single isomer, unassigned) [Example 237, 1-(4-(((1R,2*)-5-(2-(2-aminopyridin-3-yl)-5-(3-fluoro-1H-pyrazol-1-yl)-3H-imidazo[4,5-b]pyridin-3-yl)-2-fluoro-2,3-dihydro-1H-inden-1-yl)amino)piperidin-1-yl)prop-2-en-1-one]: 542 nM, 362 nM, 17.7 nM and 89.5 nM.
For `C=CC(=O)N1CCC(NC2CCc3cc(-n4c(-c5cccnc5N)nc5ccc(C6CC6(F)F)nc54)ccc32)CC1` (single isomer, unassigned) [Example 244, 1-(4-(((*)-5-(2-(2-aminopyridin-3-yl)-5-((*)-2,2-difluorocyclopropyl)-3H-imidazo[4,5-b]pyridin-3-yl)-2,3-dihydro-1H-inden-1-yl)amino)piperidin-1-yl)prop-2-en-1-one], the IC50 on AKT1 WT is 984 nM; in experiment [1] (Homo sapiens, LAPC4, 72 h) it was 371 nM; at AKT1 E17K, 20.1 nM; on AKT2, 199 nM.
The corresponding values for `C=CC(=O)Nc1cccc(F)c1C(=O)N[C@H]1CCc2cc(-n3c(-c4cccnc4N)nc4ccc(-n5cccn5)nc43)ccc21` [Example 6, N-[(1S)-5-[2-(2-aminopyridin-3-yl)-5-(pyrazol-1-yl)imidazo[4,5-b]pyridin-3-yl]-2,3-dihydro-1H-inden-1-yl]-2-fluoro-6-(prop-2-enamido)benzamide] are 11.9 nM, 144 nM, 20.1 nM and 22 nM.
Turning to `C=CC(=O)N1CCC(N[C@H]2CCc3cc(-n4c(-c5cccnc5N)nc5ccc(-n6cccn6)nc54)ccc32)C(F)(F)C1` (single isomer, unassigned) [Example 56, 1-((*)-4-(((S)-5-(2-(2-aminopyridin-3-yl)-5-(1H-pyrazol-1-yl)-3H-imidazo[4,5-b]pyridin-3-yl)-2,3-dihydro-1H-inden-1-yl)amino)-3,3-difluoropiperidin-1-yl)prop-2-en-1-one], the IC50 came to 6.71 nM at AKT1 WT, 144 nM in experiment [1] (72 h), 23.9 nM on AKT1 E17K and 104 nM on AKT2.
In the case of `C=CC(=O)N1CCC(N[C@H]2CCc3cc(-n4c(-c5cccnc5N)nc5ccc(-n6cccn6)nc54)ccc32)C(C#N)C1` (stereo partly drawn) [Example 157, (3*,4*)-1-acryloyl-4-(((S)-5-(2-(2-aminopyridin-3-yl)-5-(1H-pyrazol-1-yl)-3H-imidazo[4,5-b]pyridin-3-yl)-2,3-dihydro-1H-inden-1-yl)amino)piperidine-3-carbonitrile], the IC50 at AKT1 WT worked out at 17.2 nM; in experiment [1] (Homo sapiens, LAPC4, 72 h), 110 nM; on AKT1 E17K, 54.5 nM; on AKT2 it was 216 nM.
The matching figures for `C=C1CCN(c2ccccc2C(=O)N[C@H]2CCc3cc(-n4c(-c5cccnc5N)nc5ccc(-n6cccn6)nc54)ccc32)C1=O` [Example 42, (S)-N-(5-(2-(2-aminopyridin-3-yl)-5-(1H-pyrazol-1-yl)-3H-imidazo[4,5-b]pyridin-3-yl)-2,3-dihydro-1H-inden-1-yl)-2-(3-methylene-2-oxopyrrolidin-1-yl)benzamide]: 289 nM, 3650 nM, 897 nM and 252 nM.
